Key:
[1] = system: LS174T; assay: SCID mouse LS174T intraperitoneal xenograft model, surviving period; type: in vivo; details: LS174T i.p., CPT-11 10 mg/kg; for surviving period median (median survival time: MST): N26 antibody 5 mg/kg, 5-FU 50 mg/kg, caudal vein once a week x4, adjuvant group 24 days; for prolongation of surviving period in comparison with the adjuvant alone group: log-rank test, N26 5 mg/kg, 5-FU 50 mg/kg once a week x4
Experimental: (1) SCID mouse and colorectal cancer cell line
SCID mice (C.B-17/Icr-scid, female, 6-weeks old) were purchased from CLEA Japan Inc. and reared in an SPF (specific pathogen free) equipment.
A colorectal cancer-derived cell line LS174T (purchased from ATCC) was used as the tumor cell and cultured using RPMI 1640 medium (manufactured by GIBCO, Invitrogen) containing 10% FBS (manufactured by HyClone) and 1% penicillin-streptomycin (manufactured by GIBCO, Invitrogen).
A xenograft model was prepared by intraperitoneally transplanting the cultured LS174T cell into the SCID mouse at a dose of 1×10^7 cells/200 μl/head.
An anti-A33 human antibody (KRN330) (hereinafter referred to as N26 antibody) comprising the heavy chain variable region represented by SEQ ID NO:23 and the light chain variable region represented by SEQ ID NO:25 was used as an anti-A33 human antibody.
5-FU (5FU Injection 250 Kyowa) was obtained from Kyowa Hakko Kirin Co., Ltd. and CPT-11 (Campto (registered trademark) Injection or Irinotecan Hydrochloride Injection) was obtained from YAKULT HONSHA CO., LTD. In the control group, a dilution medium of the anti-A33 human antibody (10 mM of sodium L-glutamate, 262 mM of D-sorbitol and 0.05 mg/ml of polysorbate 80, pH 5.5) was used.
Administration schedules of agents are shown in FIG. (A)(a) and FIG. 1(B)(a), respectively. After transplanting the cultured LS174 cell into the abdominal cavity of SCID mice on day 0, their body weights were measured on the next day of the transplantation (on day 1) to divide them into six groups in such a manner that the average body weight of each group became equal (A, B, E and F groups=seven animals per group, C and D groups=six animals per group).
The grouping day was regarded as the initial administration day, and thereafter, 5 mg/kg of an anti-A33 human antibody, 10 mg/kg of CPT-11 (irinotecan) or 50 mg/kg of 5-FU was administered into the mouse caudal vein at a dose of 10 ml/kg, four times (on day 1, day 8, day 15 and day 22) at a frequency of once a week, and the surviving period was monitored. On the same day of the drug administration, an adjuvant was intravenously administered to the control group.
Survival curve of each administration group was plotted by the Kaplan-Meier method and the survival curves of each group were compared using log-rank test, with the results shown in FIG. 1(A)(b) and FIG. 1(A)(c) and FIG. 1(B)(b) and FIG. 1(B)(c). In this connection, though the results of FIG. 1(A)(b) and FIG. 1(A)(c) and FIG. 1(B)(b), and FIG. 1(B)(c) are separately shown, these were carried out in the same test, and results of the control group and the N26 antibody (5 mg/kg) group in FIG. 1(A)(b) and FIG. 1(A)(c) are identical to those in FIG. 1(B)(b) and FIG. 1(B)(c).

[2] = system: LS174T; assay: Nude rat LS174T subcutaneous xenograft model, tumor volume
Experimental: Nude rat (F344/NJcl-rnu/rnu, female, 8 weeks old) was purchased from CLEA Japan Inc. and reared in an SPF equipment.
Oxaliplatin (ELPLAT (registered trademark) For Injection or Oxaliplatin For Injection) was obtained from YAKULT HONSHA CO., LTD., and Avastin (registered trademark) (bevacizumab) was obtained from Genentech Inc.
Administration schedule of each agent was carried out in the following manner. When the size of tumor became from 30 m^3 to 50 m^3 after subcutaneously grafting with LS174T cell to the nude rat, grouping was carried out so as to be five animals per group in such a manner that the tumor volume of each group became uniform (on day 0).
The adjuvant was intravenously administered to the control group in the same manner. The tumor volume of each individual was measured at a frequency of once or twice a week.

Compound	surviving period median (median survival time: MST) [1] [days]	prolongation of surviving period in comparison with the adjuvant alone group [1]	antitumor effect (tumor volume), FIG. 2(a) ([2]; nude rat LS174T s.c., N26 5 mg/kg, 5-FU 100 mg/kg, i.v. day 0, 7, 14, 21)	antitumor effect (tumor volume), FIG. 2(b) ([2]; nude rat LS174T s.c., N26 5 mg/kg, oxaliplatin 15 mg/kg, i.v. day 0, 7, 14, 21)	body weight loss ([2]; nude rat, oxaliplatin 15 mg/kg administration group)
O=c1[nH]cc(F)c(=O)[nH]1 [5-FU, 5-fluorouracil]	24	prolongation of surviving period was not found	significant antitumor effect	–	–
CCc1c2c(nc3ccc(OC(=O)N4CCC(N5CCCCC5)CC4)cc13)-c1cc3c(c(=O)n1C2)COC(=O)[C@]3(O)CC [CPT-11, irinotecan]	41	significant prolongation of surviving period	–	–	–
O=C1[O][Pt]2([NH][C@@H]3CCCC[C@H]3[NH]2)[O]C1=O [oxaliplatin]	–	–	–	slight antitumor effect	significant body weight loss

Source: patent US20120020989A1, “METHODS OF TREATING COLORECTAL CANCER” (KYOWA HAKKO KIRIN CO., LTD., priority 2010, published 2012)
